Assay results reported in ChEMBL document CHEMBL4219172, “Synthesis and biological evaluation of pyrimidine derivatives as novel human Pin1 inhibitors” (Bioorg Med Chem, 2018).

Tests used:
[1] = biological target: T1, Peptidyl-prolyl cis-trans isomerase NIMA-interacting 1 (Homo sapiens, UniProt Q13526); test: Inhibition of human N-terminal His6-tagged Pin1 PPIase activity expressed in Escherichia coli BL21 using Suc-Ala-Glu-cis-Pro-Phe-4-nitroanilide as substrate by beckman coulter-paradigm assay; conditions: TDE = time-dependent effect
[2] = biological target: T1, Peptidyl-prolyl cis-trans isomerase NIMA-interacting 1; test: Inhibition of human N-terminal His6-tagged Pin1 PPIase activity expressed in Escherichia coli BL21 using Suc-Ala-Glu-cis-Pro-Phe-4-nitroanilide as substrate preincubated for 10 mins followed by substrate addition monitored for 90 secs by protease enzyme coupled based spectrophotometric analysis

T1 sequence (Q13526 whole entry): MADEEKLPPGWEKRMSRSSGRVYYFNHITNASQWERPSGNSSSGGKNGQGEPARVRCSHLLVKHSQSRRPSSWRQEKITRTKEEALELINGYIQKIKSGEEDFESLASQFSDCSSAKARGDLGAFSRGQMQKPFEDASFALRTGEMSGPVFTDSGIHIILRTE

SMILES | inhibition [1] | IC50 [2]
O=[N+]([O-])c1cnc(OCc2ccccc2)nc1Cl | Tde | 7.28 µM
Cn1nc(-c2ccccc2)cc1Oc1nc(Cl)ncc1[N+](=O)[O-] |  | 2.17 µM
COC(=O)c1cnc(Cl)nc1Oc1cccc2ocnc12 |  | > 100 µM
Cc1cnc(Cl)nc1Oc1ccccc1 |  | > 100 µM
CC1=C(/C=C/C(C)=C/C=C/C(C)=C/C(=O)O)C(C)(C)CCC1 [TRETINOIN] |  | 0.82 µM
O=[N+]([O-])c1cnc(Cl)nc1OCc1ccccc1 | Tde | 8.33 µM
Cc1cnc(Cl)nc1Oc1cccc2ocnc12 |  | > 100 µM
O=C1C=CC(=O)N1c1cnc(Cl)nc1Nc1ccccc1 |  | 20.2 µM
O=C1CCC(=O)N1c1cnc(Cl)nc1Nc1ccccc1 |  | > 100 µM
O=[N+]([O-])c1cnc(Cl)nc1OC1CCCC1 |  | > 100 µM
O=[N+]([O-])c1cnc(Cl)nc1NC1CCCC1 |  | > 100 µM
O=C(O)c1cnc(Cl)nc1Oc1cccc2ocnc12 |  | 18.9 µM
Clc1ncc(-c2nnco2)c(Nc2ccccc2)n1 |  | > 100 µM
O=C1C=CC(=O)c2c(O)cccc21 [JUGLONE] |  | 5.9 µM
COc1cccc(Oc2nc(Cl)ncc2[N+](=O)[O-])c1 |  | 5.04 µM
O=[N+]([O-])c1cnc(Cl)cc1Oc1cccc2ocnc12 |  | > 100 µM
O=[N+]([O-])c1cncnc1Oc1cccc2ocnc12 |  | > 100 µM
N#Cc1cnc(Cl)nc1Oc1ccccc1 |  | 4.36 µM
Nc1ccccc1Oc1nc(Cl)ncc1[N+](=O)[O-] |  | 33.5 µM
O=[N+]([O-])c1cnc(Cl)nc1Oc1ccccc1 | Tde | 2.24 µM
O=[N+]([O-])c1cnc(Cl)nc1Oc1cccc2ocnc12 | Tde | 1.68 µM
O=[N+]([O-])c1cnc(Cl)nc1Oc1ccc2ccccc2c1 |  | 16.6 µM

Other lines, results leading:

inhibition [1] | IC50 [2] | SMILES
 | 6.66 µM | O=[N+]([O-])c1cnc(Cl)nc1Nc1ccccc1
 | 9.05 µM | N#Cc1ccccc1Oc1nc(Cl)ncc1[N+](=O)[O-]
 | 13.9 µM | O=[N+]([O-])c1cnc(CCc2ccccc2)nc1Cl
 | > 100 µM | FC(F)(F)c1cnc(Cl)nc1Oc1cccc2ocnc12
 | > 100 µM | FC(F)(F)c1cnc(Cl)nc1Oc1ccccc1
 | 5.2 µM | CS(=O)(=O)Nc1ccccc1Oc1nc(Cl)ncc1[N+](=O)[O-]
 | 22.6 µM | O=[N+]([O-])c1cnc(Cl)nc1Oc1cccc2ccccc12
 | > 100 µM | CNc1nc(Cl)ncc1[N+](=O)[O-]
 | > 100 µM | O=[N+]([O-])c1ccc(Cl)nc1Oc1cccc2ocnc12
 | 2.52 µM | O=[N+]([O-])c1cnc(Cl)nc1Oc1ccccc1F
 | 7.27 µM | O=[N+]([O-])c1cnc(OCCc2ccccc2)nc1Cl
 | 4.03 µM | COc1ccccc1Oc1nc(Cl)ncc1[N+](=O)[O-]
 | 4.08 µM | O=[N+]([O-])c1cnc(Cl)nc1OCCc1ccccc1
 | 9.87 µM | Clc1ncc(-c2ncco2)c(Nc2ccccc2)n1
 | 3.48 µM | O=[N+]([O-])c1cnc(Cl)nc1Oc1ccccn1
 | > 100 µM | O=[N+]([O-])c1cnc(-c2ccc3ccccc3c2)nc1Oc1cccc2ocnc12
 | > 100 µM | O=[N+]([O-])c1cnc(Cl)nc1NC1CCCCC1
 | > 100 µM | O=[N+]([O-])c1cnc(Cl)nc1OC1CCCCC1
 | > 100 µM | O=[N+]([O-])c1cnc(Cl)nc1NCCc1ccccc1
 | 34 µM | O=[N+]([O-])c1cnc(Cl)nc1Oc1ccc(-c2ccccc2)cc1
 | > 100 µM | Clc1ncc(Cl)c(Oc2ccccc2)n1
 | > 100 µM | O=[N+]([O-])c1cnc(-c2ccccc2)nc1Oc1cccc2ocnc12
